pIC50: −log10 of the molar value.
Biological target: Acetylcholinesterase (Homo sapiens, UniProt P22303)
Experiment: Inhibitory activity against acetylcholinesterase in human blood
Assay type: tissue-based

Sequence of Acetylcholinesterase (P22303 whole entry): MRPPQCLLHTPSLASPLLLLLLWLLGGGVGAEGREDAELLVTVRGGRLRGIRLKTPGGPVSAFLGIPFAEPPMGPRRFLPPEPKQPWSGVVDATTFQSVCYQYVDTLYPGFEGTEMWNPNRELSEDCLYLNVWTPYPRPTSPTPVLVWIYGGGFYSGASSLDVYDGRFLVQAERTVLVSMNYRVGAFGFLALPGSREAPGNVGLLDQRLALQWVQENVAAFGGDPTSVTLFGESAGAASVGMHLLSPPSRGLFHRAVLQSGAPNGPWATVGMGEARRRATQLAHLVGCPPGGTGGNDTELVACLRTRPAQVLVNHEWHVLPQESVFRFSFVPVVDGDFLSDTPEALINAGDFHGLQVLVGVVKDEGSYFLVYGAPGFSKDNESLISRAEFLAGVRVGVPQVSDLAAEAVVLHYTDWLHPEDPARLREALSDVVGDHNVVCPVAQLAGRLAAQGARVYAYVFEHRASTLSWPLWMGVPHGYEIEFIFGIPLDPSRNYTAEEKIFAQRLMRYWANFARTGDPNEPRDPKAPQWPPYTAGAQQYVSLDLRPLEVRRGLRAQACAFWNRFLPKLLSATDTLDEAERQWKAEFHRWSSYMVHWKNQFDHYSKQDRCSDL

CCCN1CCCC(c2cccc(OC(=O)NC(C)C)c2)C1 (stereo unspecified) showed a pIC50 of 5.00.
